# Results reported in patent US20250352555A1, “METHOD OF INCREASING IMMUNE CELL ACTIVATION AND/OR TREATING CANCER USING DIBENZOXAZEPINONES” (VASCULAR THERAPEUTICS PTY LTD, priority 2022, published 2025).
# Assays:
# A375 cells = assay: Cell morphology study, A375; assay type: cell-based, human; conditions: 1 μM, 24 h
# Protocol: Cell morphology studies. Cells were grown in medium containing 10% FBS in 4-well chamber slides. The following day the cells were incubated in medium containing 10% FBS and vehicle, BT2 or SCH772984 at 1 μM for 24 h, then fixed with 4% paraformaldehyde solution for 15 min. After washing briefly in PBS the cells were stained with hemotoxylin and eosin. The slides were scanned using an Aperio ScanScope XT slide scanner (Leica Biosystems, Mt Waverley, Vic, Australia) and images were captured using ImageScope software (Leica Biosystems).
# The morphology of A375 and MeWo cells exposed to 1 μM of BT2 or SCH772984 for 24 h was also assessed.
# B16F10 melanoma = assay: Melanoma growth in C57BL/6J mice bearing s.c. B16F10 tumors; assay type: in vivo, mouse
# Protocol: Melanoma growth studies in mice. Six-to-eight week old C57BL/6J mice (sourced from Australian Resource Centre, Perth) were inoculated subcutaneously (s.c.) with B16F10 cells (1×10^5 cells/mouse in 100 μl DMEM containing 10% FBS with 50% Matrigel). InVivoPlus anti-mouse PD-1 (CD279) (BioXCell, BP0033-2) or InVivoPlus polyclonal Armenian hamster IgG (Bio X Cell, BP0091) was administered intraperitoneally (i.p.) (100 μg) twice a week. Treatment commenced on Day 7.
# Alternatively, BT2 was suspended at 10 mg/ml in vehicle (saline containing 0.5% (v/v) Tween 80 and 0.01% (v/v) DMSO) and sonicated prior to administration. Vehicle or BT2 was administered i.p. (20 ml/kg and 200 mg/kg, respectively) once a day on a 5 days-on/2 days-off schedule. Treatment commenced when tumors were palpable on Day 5.
# Tumors were measured by length and width in mm twice per week for MDA-MB-435 in SCID mice and by length, width and height in mm once per day for B16F10 in C57BL/6J mice. Tumor volumes were calculated using formula V=(L×W×H×π)/6 (B16F10) or V=L×W×W/2 (MDA-MB-435). If a second tumor was detected in an animal, both tumor volumes were measured and their volumes combined. Animal protocols were approved by the Explora Biolabs' Institutional Animal Care and Use Committee (IACUC) and the UNSW Animal Care and Ethics Committee.
# The preceding xenograft studies showing anti-tumor effects in immunocompromised mice when BT2 is delivered intratumorally (i.t.) but not systemically (i.p.) led the inventors to hypothesize that BT2 could rely upon an active immune system in order to effect tumor growth inhibition. Therefore, the effect of BT2 was tested in an immunocompetent mouse model of melanoma growth using B16F10 melanoma. […]
# To assess the effect of BT2 in the same model, C57BL/6J mice bearing s.c. B16F10 tumors were administered with BT2 or vehicle (200 mg/kg or 20 ml/kg, respectively, i.p.) once a day on a 5 days-on/2 days-off schedule. […] Tumor size on Day 17 measured using callipers (FIG. 10A) correlated with isolated weighed tumors (FIG. 10B).
# DUSP8 = assay: Western blotting for DUSP8, Jurkat T cells; assay type: cell-based, human; conditions: 24 h
# Protocol: (§1) Western blotting. Cells were treated with compounds and times indicated and total cell lysates were prepared in RIPA buffer. Lysates (10 μg) were resolved by SDS-PAGE and transferred to Immobilon-P polyvinylidene difluoride (PVDF) membranes (Millipore, USA).
# (§2) Membranes were blocked with 5% skim milk and incubated with rabbit monoclonal anti-c-Jun (Abcam, cat. no. ab32137; mouse, rat and human reactive) antibody, rabbit monoclonal anti-PD-1 (Abcam, cat. no. ab214421) antibody, mouse monoclonal β-actin antibody (Sigma-Aldrich, cat. no. A5316), anti-phospho-SAPK/JNK (Thr^183/Tyr^185) (98F2) (CST, cat. no. 4671) antibody, anti-phospho-p44/42 MAPK (ERK1/2) (Thr^202/Tyr^204) (D13.14.4E) (CST, cat. no. 4370) antibody, anti-phospho-p38 MAPK (Thr^180/Tyr^182) (D3F9) (CST, cat. no. 4511) antibody, anti-SAPK/JNK antibody (CST, cat. no. 9252), anti-p44/42 MAPK (ERK1/2) (137F5) antibody (CST, cat. no. 4695), anti-p38 MAPK antibody (CST, cat. no. 9212), anti-DUSP8 antibody (Abcam, cat. no. ab198175) or anti-c-MAF (BLR045F) antibody (Abcam, cat. no. ab243901). […] Chemiluminescence was detected using the Western Lightning Chemiluminescence system (Thermo Scientific, USA) and ImageQuant™ LAS 4000 biomolecular imager (GE Healthcare Life Sciences, USA). Band intensity in images generated with the LAS 4000 was quantified using NIH Image J. […]
# JUN [1] = assay: Western blotting for JUN, A375 cells; assay type: cell-based, human; conditions: A375 cells (BRAF^V600E), 24 h, dose-dependent
# Protocol: as §1, §2
# JUN [2] = assay: Western blotting for JUN, MDA-MB-435 cells; assay type: cell-based, human; conditions: MDA-MB-435 cells (BRAF^V600E), 24 h, dose-dependent
# Protocol: as §1, §2
smiles,measurement,setting,value
"CCOC(=O)Nc1ccc2c(c1)C(=O)N(CC)c1ccccc1O2 [BT2, (10-ethyl-11-oxo-10,11-dihydro-dibenzo[b,f][1,4]oxazepin-2-yl)-carbamic acid ethyl ester]",cell morphology,A375 cells,loss of spindle morphology and cell rounding
same,B16F10 tumor growth (volume),"B16F10 melanoma; C57BL/6J mice, 200 mg/kg i.p. once a day, 5 days-on/2 days-off, from Day 5",significant B16F10 growth inhibition from Day 9
same,body weight,"B16F10 melanoma; C57BL/6J mice, B16F10, 200 mg/kg i.p. once a day, 5 days-on/2 days-off",no adverse effect on body weight
same,mice with tumor size exceeding 500 mm^3 (Kaplan-Meier analysis),"B16F10 melanoma; Day 17, 200 mg/kg i.p., vehicle 75%",none
same,DUSP8 protein levels (Western blot),DUSP8,elevated
same,JUN expression (Western blot),JUN [1],increased
same,JUN expression (Western blot),JUN [2],increased
